PubChem BioAssay AID328 (DTP/NCI, 2004)
Where “and” joins values, the source holds several entries; their conditions need not be identical. Equal values may be shown once. Inconclusive results and toxic doses are left out.

System: BDF1 mice, P388 leukemia ip, median survival T/C
Assay: NCI In Vivo Anticancer Drug Screen. Data for tumor model P388 Leukemia (intraperitoneal) in B6D2F1 (BDF1) mice
Settings: endpoint: median survival time, higher = longer survival
Method in brief: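 Survival ratio, drug arm over vehicle arm, in mice with a transplanted tumour.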

[1] = dose: 50.0 mg/kg/injection, schedule: Q01DX009 (ip), vehicle: saline
[2] = dose: 50.0 mg/kg/injection, schedule: Q04DX003 (ip), vehicle: saline
[3] = dose: 100.0 mg/kg/injection, schedule: Q01DX009 (ip), vehicle: saline with Tween-80
[4] = dose: 200.0 mg/kg/injection, schedule: Q01DX009 (ip), vehicle: saline with Tween-80
[5] = dose: 25.0 mg/kg/injection, schedule: Q01DX009 (ip), vehicle: Klucel (hydroxypropylcellulose) (HPC)
[6] = dose: 50.0 mg/kg/injection, schedule: Q01DX009 (ip), vehicle: Klucel (hydroxypropylcellulose) (HPC)
[7] = dose: 100.0 mg/kg/injection, schedule: Q01DX009 (ip), vehicle: Klucel (hydroxypropylcellulose) (HPC)
[8] = dose: 100.0 mg/kg/injection, schedule: Q04DX003 (ip), vehicle: Klucel (hydroxypropylcellulose) (HPC)
[9] = dose: 12.5 mg/kg/injection, schedule: Q01DX009 (ip), vehicle: saline
[10] = dose: 25.0 mg/kg/injection, schedule: Q01DX009 (ip), vehicle: saline
[11] = dose: 100.0 mg/kg/injection, schedule: Q04DX003 (ip), vehicle: saline with Tween-80
[12] = dose: 400.0 mg/kg/injection, schedule: Q04DX003 (ip), vehicle: saline with Tween-80
[13] = dose: 200.0 mg/kg/injection, schedule: Q01DX009 (ip), vehicle: Klucel (hydroxypropylcellulose) (HPC)
[14] = dose: 200.0 mg/kg/injection, schedule: Q04DX003 (ip), vehicle: Klucel (hydroxypropylcellulose) (HPC)
[15] = dose: 400.0 mg/kg/injection, schedule: Q04DX003 (ip), vehicle: Klucel (hydroxypropylcellulose) (HPC)
[16] = dose: 200.0 mg/kg/injection, schedule: Q04DX003 (ip), vehicle: saline with Tween-80
[17] = dose: 50.0 mg/kg/injection, schedule: Q04DX003 (ip), vehicle: saline with Tween-80
[18] = dose: 5.0 mg/kg/injection, schedule: Q04DX003 (ip), vehicle: saline

O=C(Oc1ccc([N+](=O)[O-])cc1)c1ccc(C[n+]2ccccc2)cc1
T/C (dose: 50.0 mg/kg/injection, schedule: Q01DX009 (ip), vehicle: saline with Tween-80): 91 % of control | T/C [1]: 89 % of control | T/C [2]: 91 % of control | T/C [3]: 109 % of control | T/C (dose: 100.0 mg/kg/injection, schedule: Q01DX009 (ip), vehicle: saline): 89 % of control | T/C (dose: 100.0 mg/kg/injection, schedule: Q04DX003 (ip), vehicle: saline): 104 % of control and 108 % of control | T/C [4]: 116 % of control | T/C (dose: 200.0 mg/kg/injection, schedule: Q01DX009 (ip), vehicle: saline): 96 % of control | T/C (dose: 200.0 mg/kg/injection, schedule: Q04DX003 (ip), vehicle: saline): 90 % of control and 100 % of control

CC(C)CNC(=S)N/N=C\C=N/NC(=S)NCC(C)C
T/C (dose: 75.0 mg/kg/injection, schedule: Q01DX009 (ip), vehicle: saline with Tween-80): 98 % of control | T/C (dose: 150.0 mg/kg/injection, schedule: Q01DX009 (ip), vehicle: saline with Tween-80): 91 % of control

COc1ccc(N=O)c(O)c1
T/C [5]: 100 % of control and 109 % of control | T/C (dose: 25.0 mg/kg/injection, schedule: Q01DX010 (ip), vehicle: carboxymethylcellulose (CMC)): 110 % of control | T/C (dose: 25.0 mg/kg/injection, schedule: Q04DX003 (ip), vehicle: Klucel (hydroxypropylcellulose) (HPC)): 115 % of control | T/C [6]: 100 % of control and 109 % of control | T/C (dose: 50.0 mg/kg/injection, schedule: Q01DX010 (ip), vehicle: carboxymethylcellulose (CMC)): 115 % of control | T/C (dose: 50.0 mg/kg/injection, schedule: Q04DX003 (ip), vehicle: Klucel (hydroxypropylcellulose) (HPC)): 110 % of control | T/C [7]: 113 % of control and 118 % of control | T/C [8]: 110 % of control

CC1=CC(=O)OC2(C1)CC1CCC2CN1C (configuration not stated)
T/C [9]: 110 % of control | T/C [10]: 100 % of control | T/C (dose: 25.0 mg/kg/injection, schedule: Q04DX003 (ip), vehicle: saline): 100 % of control | T/C [1]: 100 % of control | T/C [2]: 104 % of control

CSc1cccc(NC(=O)OCCOc2ccc(Br)cc2)c1
T/C (dose: 12.5 mg/kg/injection, schedule: Q01DX009 (ip), vehicle: Klucel (hydroxypropylcellulose) (HPC)): 109 % of control | T/C [5]: 105 % of control | T/C [6]: 102 % of control

Nc1nc(N)c2nc(Sc3ccc(Cl)cc3)c(-c3ccccc3)nc2n1
T/C [11]: 88 % of control | T/C [12]: 99 % of control

O=C1OC(c2ccc([N+](=O)[O-])cc2)Sc2ccccc21 (configuration not stated)
T/C [6]: 86 % of control | T/C (dose: 100.0 mg/kg/injection, schedule: Q01DX001 (ip), vehicle: Klucel (hydroxypropylcellulose) (HPC)): 100 % of control | T/C [8]: 100 % of control | T/C (dose: 200.0 mg/kg/injection, schedule: Q01DX001 (ip), vehicle: Klucel (hydroxypropylcellulose) (HPC)): 100 % of control | T/C [13]: 100 % of control | T/C [14]: 104 % of control | T/C (dose: 400.0 mg/kg/injection, schedule: Q01DX001 (ip), vehicle: Klucel (hydroxypropylcellulose) (HPC)): 100 % of control | T/C [15]: 109 % of control

COC(OC)c1nc(SC)[nH]c(=O)c1C
T/C [3]: 91 % of control | T/C [11]: 100 % of control | T/C [4]: 95 % of control | T/C [16]: 100 % of control | T/C [12]: 95 % of control

CCOC(=O)c1cnc(SCc2ccccc2Cl)nc1N1CC1
T/C (dose: 10.6 mg/kg/injection, schedule: Q01DX009 (ip), vehicle: Klucel (hydroxypropylcellulose) (HPC)): 108 % of control | T/C (dose: 28.05 mg/kg/injection, schedule: Q01DX009 (ip), vehicle: Klucel (hydroxypropylcellulose) (HPC)): 114 % of control | T/C (dose: 63.75 mg/kg/injection, schedule: Q01DX009 (ip), vehicle: Klucel (hydroxypropylcellulose) (HPC)): 152 % of control

CCN=C1N[N+]2=CCCCC2S1 (configuration not stated)
T/C (dose: 35.0 mg/kg/injection, schedule: Q01DX009 (ip), vehicle: saline): 111 % of control | T/C (dose: 140.0 mg/kg/injection, schedule: Q01DX009 (ip), vehicle: saline): 95 % of control

CCCCOCN1CCCCC1
T/C [17]: 108 % of control | T/C [11]: 120 % of control | T/C [16]: 104 % of control

C1CCN(NC2=NCCO2)CC1
T/C [9]: 95 % of control | T/C [10]: 108 % of control | T/C [1]: 100 % of control

CC(C)CCOC(=O)Cc1ccccc1
T/C [7]: 100 % of control | T/C [8]: 90 % of control | T/C [13]: 115 % of control | T/C [14]: 113 % of control | T/C (dose: 400.0 mg/kg/injection, schedule: Q01DX009 (ip), vehicle: Klucel (hydroxypropylcellulose) (HPC)): 115 % of control | T/C [15]: 118 % of control

COc1cccc2c1C(=O)c1c(O)c3c(c(O)c1C2=O)C[C@@](O)(/C(C)=N\NC(=O)CO)C[C@@H]3OC1CC(N)C(O)C(C)O1 (some centres not stated)
T/C (dose: 0.27 mg/kg/injection, schedule: Q01DX009 (ip), vehicle: saline): 172 % of control | T/C (dose: 0.4 mg/kg/injection, schedule: Q01DX009 (ip), vehicle: saline): 183 % of control | T/C (dose: 0.6 mg/kg/injection, schedule: Q01DX009 (ip), vehicle: saline): 190 % of control | T/C (dose: 0.9 mg/kg/injection, schedule: Q01DX009 (ip), vehicle: saline): 186 % of control | T/C (dose: 1.87 mg/kg/injection, schedule: Q01DX009 (ip), vehicle: saline): 248 % of control | T/C (dose: 2.2 mg/kg/injection, schedule: Q04DX003 (ip), vehicle: saline): 159 % of control and 172 % of control | T/C (dose: 3.3 mg/kg/injection, schedule: Q04DX003 (ip), vehicle: saline): 154 % of control and 213 % of control | T/C (dose: 3.75 mg/kg/injection, schedule: Q01DX009 (ip), vehicle: saline): 182 % of control | T/C [18]: 163 % of control and 209 % of control | T/C (dose: 7.5 mg/kg/injection, schedule: Q01DX009 (ip), vehicle: saline): 115 % of control | T/C (dose: 7.5 mg/kg/injection, schedule: Q04DX003 (ip), vehicle: saline): 150 % of control and 200 % of control | T/C (dose: 29.0 micrograms/kg/injection, schedule: Q01DX009 (ip), vehicle: saline): 110 % of control | T/C (dose: 44.0 micrograms/kg/injection, schedule: Q01DX009 (ip), vehicle: saline): 116 % of control

CN(Cc1ccc2nc(N)nc(N)c2c1)c1ccc(C(=O)NC(CCC(=O)O)C(=O)O)cc1 (configuration not stated)
T/C (dose: 0.03 mg/kg/injection, schedule: Q01DX009 (ip), vehicle: saline): 172 % of control | T/C (dose: 0.05 mg/kg/injection, schedule: Q01DX009 (ip), vehicle: saline): 194 % of control | T/C (dose: 0.09 mg/kg/injection, schedule: Q01DX009 (ip), vehicle: saline): 200 % of control and 218 % of control | T/C (dose: 0.15 mg/kg/injection, schedule: Q01DX009 (ip), vehicle: saline): 86 % of control and 190 % of control and 209 % of control | T/C (dose: 0.22 mg/kg/injection, schedule: Q01DX009 (ip), vehicle: saline): 223 % of control | T/C (dose: 0.31 mg/kg/injection, schedule: Q01DX009 (ip), vehicle: saline): 110 % of control | T/C (dose: 1.25 mg/kg/injection, schedule: Q04DX003 (ip), vehicle: saline): 218 % of control | T/C (dose: 1.65 mg/kg/injection, schedule: Q04DX003 (ip), vehicle: saline): 154 % of control | T/C (dose: 2.5 mg/kg/injection, schedule: Q04DX003 (ip), vehicle: saline): 268 % of control and 159 % of control and 181 % of control | T/C (dose: 3.75 mg/kg/injection, schedule: Q04DX003 (ip), vehicle: saline): 86 % of control and 222 % of control | T/C [18]: 104 % of control | T/C (dose: 5.7 micrograms/kg/injection, schedule: Q01DX009 (ip), vehicle: saline): 116 % of control | T/C (dose: 8.5 micrograms/kg/injection, schedule: Q01DX009 (ip), vehicle: saline): 116 % of control | T/C (dose: 13.0 micrograms/kg/injection, schedule: Q01DX009 (ip), vehicle: saline): 262 % of control | T/C (dose: 19.0 micrograms/kg/injection, schedule: Q01DX009 (ip), vehicle: saline): 174 % of control

C[N+]1(C)CCCC1
T/C (dose: 6.25 mg/kg/injection, schedule: Q04DX003 (ip), vehicle: saline): 100 % of control | T/C (dose: 12.5 mg/kg/injection, schedule: Q04DX003 (ip), vehicle: saline): 100 % of control

CCN(CCS)Cc1ccccc1
T/C (dose: 25.0 mg/kg/injection, schedule: Q04DX003 (ip), vehicle: saline with Tween-80): 100 % of control | T/C [17]: 104 % of control | T/C [11]: 109 % of control
